From patent US20260295053A1, “COMPOUNDS FOR DEGRADATION AND INHIBITION OF KRAS (G12D) PROTEIN” (Shenzhen Ionova Life Science Co., Ltd., priority 2023, published 2026)

Tests used:
KRAS (G12D) = target: T1, KRAS (G12D) (Homo sapiens, UniProt P01116, G12D); assay: KRAS (G12D) cellular degradation assay in AsPC-1 cells; type: cell-based; details: 24 hours, antibody fluorescence (Odyssey CLX), DC50 half-maximal degradation concentration
T1 construct: in-cell western with KRAS G12D antibody after 24 h
T1 sequence (P01116 1-188 isoform P01116-2 G12D): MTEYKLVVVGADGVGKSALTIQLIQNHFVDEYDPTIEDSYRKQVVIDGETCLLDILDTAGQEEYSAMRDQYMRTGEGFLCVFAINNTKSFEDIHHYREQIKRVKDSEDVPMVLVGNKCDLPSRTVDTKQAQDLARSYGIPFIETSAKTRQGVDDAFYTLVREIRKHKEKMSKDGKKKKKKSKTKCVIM
Outline: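 Read-outs were KRAS G12D immunofluorescence against β-actin after 24 h (DC50) and CellTiter Glo luminescence after 6 days (IC50). Compounds were titrated 1:3 from […] to 1.5 nM final on AsPC-1 cells at 37 °C, 5% CO2.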

AsPC-1 cells = assay: AsPC-1 cell proliferation assay (CellTiter Glo); type: cell-based; details: 6 days
Method: ASPC-1 and PK-59 cellular assays ASPC-1 (ATCC cat. CRL-1682) and PK-59 (Nanjing Cobioer, Cat. No. CBP61184) were used in KRAS cellular degradation, pERK inhibition and proliferation assays. The two cell lines were maintained following vendor's instructions. For monitoring KRAS (G12D) cellular degradation and pERK biomarker inhibition, cells were seeded into a 96-well plate with 22,000 and 16,000 cells/well for assays in ASPC-1 and PK-59, respectively. Cells were incubated at 37° C. with 5% CO2 and cell density was monitored until ^~90% confluency was reached. Compounds were serially diluted at a 1:3 ratio and dispensed into each well at final concentrations ranging from […] to 1.5 nM. After incubation for 24 hours, the culture media were removed and the cells were subjected to fixation, permeabilization and blocking (Intercept blocking buffer, Li-cor). For KRAS (G12D) degradation, the cells were treated with primary antibody (KRAS G12D antibody, Cell Signaling Technologies, Cat. No. CST14429) and for β-actin (β-actin mAb, Beyotime, Cat. No. AF-5001), and followed by secondary antibodies, Anti-rabbit IgG (H+L) (DyLight™ 800 4×PEG Conjugate) or IRDye® 680RD Goat anti-Mouse IgG. For pERK inhibition assay, cells were treated with primary antibodies for pERK (Phospho-p44/42 MAPK (Erk1/2) (Thr202/Tyr204) (D13.14.4E) XP® Rabbit mAb, Cell Signaling Technologies, Cat. No. CST-4370) and β-actin (β-actin mAb, Beyotime, Cat. No. AF-5001), and followed by secondary antibodies, Anti-rabbit IgG (H+L) (DyLight™ 800 4×PEG Conjugate) or IRDye® 680RD Goat anti-Mouse IgG. Fluorescence signals were read on Odyssey CLX instrument. For cell proliferation assays, cells were seeded into a 96-well plate at 3,500 and 800 cells/well for assays in ASPC-1 and PK-59, respectively. Cells were incubated at 37° C. with 5% CO2 for overnight. Compounds were serially diluted at a 1:3 ratio and dispensed into each well at final concentrations ranging from […] to 1.5 nM. After incubation for 6 days, cell viability reagent (CellTiter Glo, Promega, Cat. No. G7573) was added to each well and luminescence was recorded on Molecular Devices Spectramax iD3 instrument. IC50, half-maximal inhibitory concentration for pERK inhibition or cell proliferation, and DC50, half-maximal degradation concentration in KRAS (G12D) cellular degradation were determined by fitting the corresponding dose response curves using GraphPad Prism software.
Wherein “A” means the value <10 nM, “B” means 10 nM<the value <100 nM, “C” means 100 nM<the value <1000 nM, and “D” means the value >1000 nM, in which, the value means the value of DC50 or IC50. NT means not tested.

CCn1nccc1-c1ccc([C@H](CO)NC(=O)[C@@H]2C[C@@H](O)CN2C(=O)[C@H](C(C)C)n2cc(-c3ccc(COc4c(-c5c(C)c(F)cc6[nH]ncc56)c(C5CC5)cc5c(N6C[C@@H]7C[C@H]6CN7)nc(OC6CC7(COC7)C6)nc45)cc3)nn2)cc1 [Example 69, (2S,4R)-1-((2S)-2-(4-(4-(((2-((2-oxaspiro[3.3]heptan-6-yl)oxy)-4-((1S,4S)-2,5-diazabicyclo[2.2.1]heptan-2-yl)-6-cyclopropyl-7-(6-fluoro-5-methyl-1H-indazol-4-yl)quinazolin-8-yl)oxy)methyl)phenyl)-1H-1,2,3-triazol-1-yl)-3-methylbutanoyl)-N—((R)-1-(4-(1-ethyl-1H-pyrazol-5-yl)phenyl)-2-hydroxyethyl)-4-hydroxypyrrolidine-2-carboxamide] was tested, and the DC50 (KRAS (G12D)) was under 10 nM and the IC50 (AsPC-1 cells; Homo sapiens, ASPC1, 144 h) was under 10 nM.

CCn1nccc1-c1ccc([C@H](CO)NC(=O)[C@@H]2C[C@@H](O)CN2C(=O)[C@H](C(C)C)n2cc(-c3ccc(COc4c(-c5c(C)c(F)c(F)c6[nH]ncc56)c(C5CC5)cc5c(N6C[C@@H]7C[C@H]6CN7)nc(O[C@H]6CC[C@H](OC)CC6)nc45)cc3)nn2)cc1 [Example 99, (2S,4R)-1-((2S)-2-(4-(4-(((4-((1S,4S)-2,5-diazabicyclo[2.2.1]heptan-2-yl)-6-cyclopropyl-7-(6,7-difluoro-5-methyl-1H-indazol-4-yl)-2-(((1r,4S)-4-methoxycyclohexyl)oxy)quinazolin-8-yl)oxy)methyl)phenyl)-1H-1,2,3-triazol-1-yl)-3-methylbutanoyl)-N—((R)-1-(4-(1-ethyl-1H-pyrazol-5-yl)phenyl)-2-hydroxyethyl)-4-hydroxypyrrolidine-2-carboxamide] was tested, and the DC50 (KRAS (G12D)) was under 10 nM and the IC50 (AsPC-1 cells; Homo sapiens, ASPC1, 144 h) was under 10 nM.

Compound CO[C@@H](C)COc1nc(N2C[C@@H]3C[C@H]2CN3)c2cc(C3CC3)c(-c3c(C)c(F)cc4[nH]ncc34)c(OCc3ccc(-c4cn([C@H](C(=O)N5C[C@H](O)C[C@H]5C(=O)N[C@H](C#Cc5cccc6[nH]ncc56)CO)C(C)C)nn4)cc3)c2n1 [Example 133, (2S,4R)-1-((2S)-2-(4-(4-(((4-((1S,4S)-2,5-diazabicyclo[2.2.1]heptan-2-yl)-6-cyclopropyl-7-(6-fluoro-5-methyl-1H-indazol-4-yl)-2-((S)-2-methoxypropoxy)quinazolin-8-yl)oxy)methyl)phenyl)-1H-1,2,3-triazol-1-yl)-3-methylbutanoyl)-4-hydroxy-N—((R)-1-hydroxy-4-(1H-indazol-4-yl)but-3-yn-2-yl)pyrrolidine-2-carboxamide] has a DC50 (KRAS (G12D)) of under 10 nM and an IC50 (AsPC-1 cells; Homo sapiens, ASPC1, 144 h) of under 10 nM.

Compound CO[C@@H](C)COc1nc(N(C)[C@@H]2CCNC2)c2cc(C3CC3)c(-c3c(C)c(F)cc4[nH]ncc34)c(OCc3ccc(-c4cn([C@H](C(=O)N5C[C@H](O)C[C@H]5C(=O)N[C@H](c5ccc(-c6scnc6C)cc5)[C@H](C)O)C(C)C)nn4)cc3)c2n1 [Example 187, (2S,4R)-1-((2S)-2-(4-(4-(((6-cyclopropyl-7-(6-fluoro-5-methyl-1H-indazol-4-yl)-2-((S)-2-methoxypropoxy)-4-(methyl((R)-pyrrolidin-3-yl)amino)quinazolin-8-yl)oxy)methyl)phenyl)-1H-1,2,3-triazol-1-yl)-3-methylbutanoyl)-4-hydroxy-N-((1R,2S)-2-hydroxy-1-(4-(4-methylthiazol-5-yl)phenyl)propyl)pyrrolidine-2-carboxamide] has a DC50 (KRAS (G12D)) of under 10 nM and an IC50 (AsPC-1 cells; Homo sapiens, ASPC1, 144 h) of under 10 nM.

CO[C@@H](C)COc1nc(N2C[C@H]3C[C@@H]2CN3)c2cc(C3CC3)c(-c3c(C)c(F)cc4[nH]ncc34)c(OCc3ccc(-c4cn([C@H](C(=O)N5C[C@H](O)C[C@H]5C(=O)N[C@@H](CO)c5ccc(-c6scnc6C)cc5)C(C)C)nn4)cc3)c2n1 (single isomer, unassigned) [Example 2A] showed a DC50 (KRAS (G12D)) of under 10 nM and an IC50 (AsPC-1 cells) of under 10 nM.

Compound CO[C@H]1C[C@H](Oc2nc(N(C)[C@H]3CCNC3)c3cc(C4CC4)c(-c4c(C)c(F)cc5[nH]ncc45)c(OCc4ccc(-c5cn([C@H](C(=O)N6C[C@H](O)C[C@H]6C(=O)N[C@H](c6ccc(-c7scnc7C)c7c6CC7)[C@H](C)O)C(C)C)nn5)cc4)c3n2)C1 [Example 194, (2S,4R)-1-((2S)-2-(4-(4-(((6-cyclopropyl-7-(6-fluoro-5-methyl-1H-indazol-4-yl)-2-((1r,3S)-3-methoxycyclobutoxy)-4-(methyl((S)-pyrrolidin-3-yl)amino)quinazolin-8-yl)oxy)methyl)phenyl)-1H-1,2,3-triazol-1-yl)-3-methylbutanoyl)-4-hydroxy-N-((1R,2S)-2-hydroxy-1-(5-(4-methylthiazol-5-yl)bicyclo[4.2.0]octa-1(6),2,4-trien-2-yl)propyl)pyrrolidine-2-carboxamide] has a DC50 (KRAS (G12D)) of under 10 nM and an IC50 (AsPC-1 cells; Homo sapiens, ASPC1, 144 h) of under 10 nM.

CO[C@@H](C)COc1nc(N(C)[C@H]2CCNC2)c2cc(C3CCC3)c(-c3c(C)c(F)cc4[nH]ncc34)c(OCc3ccc(-c4cn([C@H](C(=O)N5C[C@H](O)C[C@H]5C(=O)N[C@H](c5ccc(-c6scnc6C)cc5)C(C)O)C(C)C)nn4)cc3)c2n1 (stereo in doubt) [Example 142, (2S,4R)-1-((2S)-2-(4-(4-(((6-cyclobutyl-7-(6-fluoro-5-methyl-1H-indazol-4-yl)-2-((S)-2-methoxypropoxy)-4-(methyl((S)-pyrrolidin-3-yl)amino)quinazolin-8-yl)oxy)methyl)phenyl)-1H-1,2,3-triazol-1-yl)-3-methylbutanoyl)-4-hydroxy-N-((1R,2R)-2-hydroxy-1-(4-(4-methylthiazol-5-yl)phenyl)propyl)pyrrolidine-2-carboxamide] showed a DC50 (KRAS (G12D)) of under 10 nM and an IC50 (AsPC-1 cells; Homo sapiens, ASPC1, 144 h) of under 10 nM.

Work on CCn1nccc1-c1ccc([C@@H](NC(=O)[C@@H]2C[C@@H](O)CN2C(=O)[C@H](C(C)C)n2cc(-c3ccc(COc4c(-c5c(C)c(F)cc6[nH]ncc56)c(C5CC5)cc5c(N(C)[C@H]6CCNC6)nc(O[C@H]6C[C@H](OC)C6)nc45)cc3)nn2)[C@H](C)O)c2c1CC2 [Example 173, (2S,4R)-1-((2S)-2-(4-(4-(((6-cyclopropyl-7-(6-fluoro-5-methyl-1H-indazol-4-yl)-2-((1r,3S)-3-methoxycyclobutoxy)-4-(methyl((S)-pyrrolidin-3-yl)amino)quinazolin-8-yl)oxy)methyl)phenyl)-1H-1,2,3-triazol-1-yl)-3-methylbutanoyl)-N-((1R,2S)-1-(5-(1-ethyl-1H-pyrazol-5-yl)bicyclo[4.2.0]octa-1(6),2,4-trien-2-yl)-2-hydroxypropyl)-4-hydroxypyrrolidine-2-carboxamide] yielded a DC50 (KRAS (G12D)) of under 10 nM and an IC50 (AsPC-1 cells; Homo sapiens, ASPC1, 144 h) of under 10 nM.

CO[C@@H](C)COc1nc(N2CCCNCC2)c2cc(C3CC3)c(-c3c(C)c(F)cc4[nH]ncc34)c(OCc3ccc(-c4cn([C@H](C(=O)N5C[C@H](O)C[C@H]5C(=O)N[C@H](c5ccc(-c6scnc6C)cc5)[C@H](C)O)C(C)C)nn4)cc3)c2n1 [Example 157, (2S,4R)-1-((2S)-2-(4-(4-(((6-cyclopropyl-4-(1,4-diazepan-1-yl)-7-(6-fluoro-5-methyl-1H-indazol-4-yl)-2-((S)-2-methoxypropoxy)quinazolin-8-yl)oxy)methyl)phenyl)-1H-1,2,3-triazol-1-yl)-3-methylbutanoyl)-4-hydroxy-N-((1R,2S)-2-hydroxy-1-(4-(4-methylthiazol-5-yl)phenyl)propyl)pyrrolidine-2-carboxamide] gave a DC50 (KRAS (G12D)) of under 10 nM and an IC50 (AsPC-1 cells; Homo sapiens, ASPC1, 144 h) of under 10 nM.

With CO[C@@H](C)COc1nc(N2C[C@H]3C[C@@H]2CN3)c2cc(C3CC3)c(-c3c(C)c(F)cc4[nH]ncc34)c(OCc3ccc(-c4cn([C@H](C(=O)N5C[C@H](O)C[C@H]5C(=O)N[C@@H](C)c5ccc(-c6scnc6C)cc5)C(C)C)nn4)cc3)c2n1 (single isomer, unassigned) [Example 3B] the DC50 (KRAS (G12D)) was over 1000 nM and the IC50 (AsPC-1 cells) was over 1000 nM.
